According to the NIST ThermoML archive (doi:10.1021/je100290a):

Columns and labels:
[1] = 101 kPa, Liquid
[2] = xn = mol fraction of the nth substance listed; conditions: 101 kPa, Liquid

OCCO [1,2-ethanediol]
[1]
Conditions	mass density [kg/m3]	viscosity [mPa·s]
298.15 K	–	16.8
303.15 K	1105.8	13.4
308.15 K	–	11.33

OCCO [1,2-ethanediol] + NCCN
[2], x2 = 0
Conditions	mass density [kg/m3]	viscosity [mPa·s]
298.15 K	–	16.8
303.15 K	1105.8	13.4
308.15 K	–	11.33

NCCN [ethane-1,2-diamine]
[1]
Conditions	mass density [kg/m3]	viscosity [mPa·s]
298.15 K	894.5	1.276
303.15 K	890.8	1.211
308.15 K	885.6	1.107

NCCN [ethane-1,2-diamine] + OCCO
[2]
Conditions	mass density, 298.15 K [kg/m3]	mass density, 303.15 K [kg/m3]	mass density, 308.15 K [kg/m3]	viscosity, 298.15 K [mPa·s]	viscosity, 303.15 K [mPa·s]	viscosity, 308.15 K [mPa·s]
x1 = 0.1027	1096.6	1089.8	1084.4	22.28	17.6	14.05
x1 = 0.1541	1086.6	1080.9	1073.8	25.54	20.56	16.93
x1 = 0.2052	1078.4	1072.4	1062.4	28.37	22.44	18.21
x1 = 0.2561	1068.5	1062.2	1053.8	30.73	23.15	19.28
x1 = 0.3066	1061.4	1053.5	1042.9	31.46	23.66	19.2
x1 = 0.3568	1051	1042.8	1033.8	30.7	22.85	18.5
x1 = 0.4078	1040.4	1034.8	1026.6	28.32	21.31	17
x1 = 0.508	1018.5	1013.9	1007.2	20.17	15.18	11.89
x1 = 0.5579	1006.6	1000.7	994.7	16.06	12.27	8.772
x1 = 0.6065	995.4	988.3	981.8	12.51	9.748	6.254
x1 = 0.6573	983.1	976.2	968.7	9.028	7.157	4.674
x1 = 0.7071	970.1	964.5	956.1	6.882	5.681	4.008
x1 = 0.756	957.3	951.7	944.4	5.154	4.177	3.547
x1 = 0.8051	946.2	938.8	931.7	3.787	3.154	2.683
x1 = 0.8542	933.4	924.9	917.5	3.199	2.552	2.128
x1 = 0.9003	919.1	913.4	907.2	2.273	1.92	1.713
x1 = 0.9438	908.8	903.4	897.5	1.8	1.561	1.422
x1 = 1	894.5	890.8	885.6	1.276	1.211	1.107
